Test results taken from ChEMBL document CHEMBL3870312, “Rational modification of donepezil as multifunctional acetylcholinesterase inhibitors for the treatment of Alzheimer's disease” (Eur J Med Chem, 2016).
The source made the active and inactive calls. The calls are words filed in the database; no cut-off is given here.

Tests used:
[1] = target: T1, Acetylcholinesterase (Homo sapiens, UniProt P22303)
Description: Inhibition of human erythrocytes AChE using acetylthiocholine iodide as substrate preincubated for 5 mins followed by substrate addition measured up to 3 mins by Ellman's method

[2] = target: Cholinesterase (Equus caballus, UniProt P81908)
Description: Inhibition of equine serum BuChE using s-butyrylthiocholine iodide as substrate preincubated for 5 mins followed by substrate addition measured up to 3 mins by Ellman's method

[3] = target: Cholinesterase (Homo sapiens, UniProt P06276)
Cholinesterase (Homo sapiens, UniProt P06276), sequence (P06276 whole entry): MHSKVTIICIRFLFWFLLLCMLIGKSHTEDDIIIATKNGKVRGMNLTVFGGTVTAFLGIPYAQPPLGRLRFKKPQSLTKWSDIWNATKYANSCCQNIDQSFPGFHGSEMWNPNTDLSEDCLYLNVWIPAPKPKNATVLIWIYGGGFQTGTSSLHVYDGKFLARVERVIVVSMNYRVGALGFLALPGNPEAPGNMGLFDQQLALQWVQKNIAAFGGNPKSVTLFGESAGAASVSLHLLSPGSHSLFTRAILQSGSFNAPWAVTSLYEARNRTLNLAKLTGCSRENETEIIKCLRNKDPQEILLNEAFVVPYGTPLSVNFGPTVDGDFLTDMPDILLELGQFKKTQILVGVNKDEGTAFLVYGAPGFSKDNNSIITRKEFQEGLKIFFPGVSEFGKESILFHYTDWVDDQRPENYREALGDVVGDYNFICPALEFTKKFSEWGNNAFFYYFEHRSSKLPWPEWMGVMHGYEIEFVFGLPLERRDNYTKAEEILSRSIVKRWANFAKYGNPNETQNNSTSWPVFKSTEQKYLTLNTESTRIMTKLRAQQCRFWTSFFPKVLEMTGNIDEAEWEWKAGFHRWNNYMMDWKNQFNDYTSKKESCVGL
Description: Inhibition of human serum BuChE using s-butyrylthiocholine iodide as substrate preincubated for 5 mins followed by substrate addition measured up to 3 mins by Ellman's method

[4] = target: Acetylcholinesterase (Electrophorus electricus, UniProt O42275)
Acetylcholinesterase (Electrophorus electricus, UniProt O42275), sequence (O42275 whole entry, the tested form may be a part): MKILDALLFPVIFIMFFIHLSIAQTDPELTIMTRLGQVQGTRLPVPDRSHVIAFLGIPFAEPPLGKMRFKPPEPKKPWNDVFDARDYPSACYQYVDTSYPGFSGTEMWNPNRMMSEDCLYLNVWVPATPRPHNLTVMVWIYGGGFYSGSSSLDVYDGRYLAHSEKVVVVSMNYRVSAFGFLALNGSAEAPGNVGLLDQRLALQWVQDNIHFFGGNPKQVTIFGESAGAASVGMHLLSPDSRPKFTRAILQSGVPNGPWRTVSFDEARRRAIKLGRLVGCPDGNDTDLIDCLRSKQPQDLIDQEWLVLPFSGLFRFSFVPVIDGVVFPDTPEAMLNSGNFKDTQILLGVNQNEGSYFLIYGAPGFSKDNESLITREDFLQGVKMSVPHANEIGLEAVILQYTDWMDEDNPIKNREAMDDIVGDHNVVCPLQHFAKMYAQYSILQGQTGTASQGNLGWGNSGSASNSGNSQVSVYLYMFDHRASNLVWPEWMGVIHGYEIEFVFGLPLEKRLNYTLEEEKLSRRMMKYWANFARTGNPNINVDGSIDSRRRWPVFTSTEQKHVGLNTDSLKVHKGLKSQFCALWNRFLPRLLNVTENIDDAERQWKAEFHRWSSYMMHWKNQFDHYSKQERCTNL
Description: Inhibition of electric eel AChE using acetylthiocholine iodide as substrate preincubated for 5 mins followed by substrate addition measured up to 3 mins by Ellman's method

[5] = system: PC-12; assay: Neuroprotective activity against amyloid beta (1 to 42 residues) induced cell death in rat PC12 cells assessed as increase in cell viability at 20 uM preincubated for 24 hrs followed by amyloid beta (1 to 42 residues) addition measured after 24 hrs by MTT assay; assay type: functional, cell-based
[6] = system: Mus musculus; assay: Cognitive enhancement activity in po dosed scopolamine-induced memory deficit Kunming mouse model assessed as increase in step-through latency time treated for 1 hr before training followed by scopolamine challenge 30 mins before training measured 24 hrs after training trial by passive avoidance test; assay type: functional, organism-based
[7] = system: Mus musculus; assay: Hepatotoxicity in scopolamine-induced memory deficit Kunming mouse model assessed as increase in alanine aminotransferase levels at 10 mg/kg, po for 6 days; assay type: toxicity, organism-based; conditions: in vivo, 144 h
[8] = system: Mus musculus; assay: Hepatotoxicity in scopolamine-induced memory deficit Kunming mouse model assessed as increased aspartate aminotransferase at 10 mg/Kg, po for 6 days; assay type: toxicity, organism-based; conditions: in vivo, 144 h
[9] = system: Mus musculus; assay: Hepatotoxicity in scopolamine-induced memory deficit Kunming mouse model assessed as area of necrosis in hepatocytes at 10 mg/Kg, po for 6 days by hematoxylin and eosin-staining based microscopic analysis; assay type: toxicity, organism-based, Hepatocyte; conditions: 144 h
[10] = species on record: Rattus norvegicus; assay: Cytotoxicity against rat PC12 cells assessed as reduction in cell viability at 3.125 to 50 uM after 24 hrs by MTT assay; assay type: toxicity; conditions: pc-12, 24 h
[11] = system: Mus musculus; assay: Hepatotoxicity in scopolamine-induced memory deficit Kunming mouse model assessed as increase in number of inflammatory cells in portal fields of liver at 10 mg/Kg, po for 6 days by hematoxylin and eosin-staining based microscopic analysis; assay type: toxicity, organism-based; conditions: in vivo, 144 h
[12] = system: Mus musculus; assay: Hepatotoxicity in scopolamine-induced memory deficit Kunming mouse model assessed as distinct fatty degeneration in hepatocytes at 10 mg/Kg, po for 6 days by hematoxylin and eosin-staining based microscopic analysis; assay type: toxicity, organism-based; conditions: in vivo, 144 h
[13] = system: Mus musculus; assay: Toxicity in scopolamine-induced memory deficit Kunming mouse model assessed as change in body weight at 2.5 to 10 mg/Kg, po for 7 days; assay type: organism-based; conditions: in vivo, 168 h
[14] = Inhibition of copper-mediated aggregation of amyloid beta (1 to 42 residues) (unknown origin) at 20 uM incubated for 46 to 48 hrs by thioflavin-T binding assay relative to control; assay type: physicochemical
[15] = system: Mus musculus; assay: Toxicity in scopolamine-induced memory deficit Kunming mouse model assessed as effect on survival at 2.5 to 10 mg/Kg, po for 7 days; assay type: organism-based; conditions: in vivo, 168 h
[16] = target: T1, Acetylcholinesterase; assay: Mixed-type inhibition of human erythrocyte AChE preincubated for 15 mins followed by addition of acetylthiocholine iodide as substrate in varying concentrations by Lineweaver-Burk reciprocal plot analysis
[17] = in vitro; conditions: PAMPA
Description: Effective permeability of the compound after 18 hrs by PAMPA

[18] = target: Amyloid-beta precursor protein (Homo sapiens) (UniProt P05067); conditions: at 20 µM
Amyloid-beta precursor protein (Homo sapiens), sequence (P05067 whole entry, the tested form may be a part): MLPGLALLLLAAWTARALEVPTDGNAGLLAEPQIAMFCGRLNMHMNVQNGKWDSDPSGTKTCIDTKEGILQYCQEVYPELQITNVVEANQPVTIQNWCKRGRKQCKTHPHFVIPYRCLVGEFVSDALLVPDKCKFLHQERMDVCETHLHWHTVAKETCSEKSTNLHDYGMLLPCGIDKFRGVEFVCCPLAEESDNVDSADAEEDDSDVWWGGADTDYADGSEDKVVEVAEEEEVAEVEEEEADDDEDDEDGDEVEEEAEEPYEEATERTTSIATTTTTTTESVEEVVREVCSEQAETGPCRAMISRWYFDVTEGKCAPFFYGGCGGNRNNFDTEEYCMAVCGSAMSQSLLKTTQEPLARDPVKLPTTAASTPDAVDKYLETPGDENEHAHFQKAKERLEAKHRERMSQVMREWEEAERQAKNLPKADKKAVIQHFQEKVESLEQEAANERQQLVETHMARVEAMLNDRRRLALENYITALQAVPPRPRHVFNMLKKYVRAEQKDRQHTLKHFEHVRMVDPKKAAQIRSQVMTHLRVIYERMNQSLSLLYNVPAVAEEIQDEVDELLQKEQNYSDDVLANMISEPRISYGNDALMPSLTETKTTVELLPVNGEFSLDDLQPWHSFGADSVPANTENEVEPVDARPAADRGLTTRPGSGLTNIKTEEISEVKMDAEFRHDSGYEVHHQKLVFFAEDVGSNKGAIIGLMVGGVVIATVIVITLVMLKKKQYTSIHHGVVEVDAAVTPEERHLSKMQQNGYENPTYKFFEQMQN
Description: Inhibition of self-mediated aggregation of amyloid beta (1 to 42 residues) (unknown origin) at 20 uM incubated for 46 to 48 hrs by Thioflavin T binding assay relative to control

[19] = system: PC-12; assay: Neuroprotective activity against Cu2+-amyloid beta (1 to 42 residues) induced cell death in rat PC12 cells by phase-contrast microscopy analysis; assay type: functional, cell-based
[20] = system: PC-12; assay: Neuroprotective activity against amyloid beta (1 to 42 residues) induced cell death in rat PC12 cells by phase-contrast microscopy analysis; assay type: functional, cell-based
[21] = system: PC-12; assay: Neuroprotective activity against amyloid beta (1 to 42 residues) induced cell death in rat PC12 cells assessed as increase in cell viability at 10 to 20 uM preincubated for 24 hrs followed by amyloid beta (1 to 42 residues) addition measured after 24 hrs by MTT assay; assay type: functional, cell-based
[22] = system: PC-12; assay: Neuroprotective activity against Cu2+-amyloid beta (1 to 42 residues) induced cell death in rat PC12 cells assessed as increase in cell viability at 2.5 to 20 uM preincubated for 24 hrs followed by Cu2+-amyloid beta (1 to 42 residues) addition measured after 24 hrs by MTT assay; assay type: functional, cell-based

T1 sequence (P22303 whole entry): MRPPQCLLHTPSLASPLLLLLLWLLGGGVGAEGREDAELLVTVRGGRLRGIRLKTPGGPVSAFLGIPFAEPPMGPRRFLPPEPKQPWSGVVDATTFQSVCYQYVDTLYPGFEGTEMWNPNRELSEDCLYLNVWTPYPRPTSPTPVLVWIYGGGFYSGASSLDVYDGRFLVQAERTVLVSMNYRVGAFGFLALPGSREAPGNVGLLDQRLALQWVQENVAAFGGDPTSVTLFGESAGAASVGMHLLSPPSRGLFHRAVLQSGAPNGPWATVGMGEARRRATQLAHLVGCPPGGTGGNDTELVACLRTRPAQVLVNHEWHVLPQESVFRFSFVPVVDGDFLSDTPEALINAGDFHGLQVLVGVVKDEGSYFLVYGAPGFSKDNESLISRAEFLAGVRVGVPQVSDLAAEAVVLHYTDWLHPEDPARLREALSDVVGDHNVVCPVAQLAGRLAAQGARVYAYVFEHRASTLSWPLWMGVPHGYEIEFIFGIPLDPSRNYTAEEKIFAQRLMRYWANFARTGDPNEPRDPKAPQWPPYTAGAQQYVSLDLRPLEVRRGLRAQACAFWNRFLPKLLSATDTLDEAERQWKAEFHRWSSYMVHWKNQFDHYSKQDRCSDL
Cholinesterase (Equus caballus, UniProt P81908), sequence (P81908 whole entry): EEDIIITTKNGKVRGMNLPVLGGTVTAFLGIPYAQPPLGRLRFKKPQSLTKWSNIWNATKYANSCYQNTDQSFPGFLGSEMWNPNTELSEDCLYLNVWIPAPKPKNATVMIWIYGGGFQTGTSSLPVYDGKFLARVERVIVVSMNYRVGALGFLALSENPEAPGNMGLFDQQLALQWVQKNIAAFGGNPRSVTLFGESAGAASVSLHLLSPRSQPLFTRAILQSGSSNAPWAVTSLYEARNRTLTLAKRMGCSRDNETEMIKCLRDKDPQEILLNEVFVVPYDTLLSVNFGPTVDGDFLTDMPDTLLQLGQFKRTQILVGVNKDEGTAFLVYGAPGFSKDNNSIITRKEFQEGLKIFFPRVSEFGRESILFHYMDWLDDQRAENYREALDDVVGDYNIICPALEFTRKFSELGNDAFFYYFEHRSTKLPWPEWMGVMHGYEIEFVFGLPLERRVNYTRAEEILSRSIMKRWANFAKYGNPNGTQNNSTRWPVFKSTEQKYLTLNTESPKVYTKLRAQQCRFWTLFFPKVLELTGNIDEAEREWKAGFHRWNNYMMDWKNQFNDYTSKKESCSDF

| Structure (SMILES) | IC50 [1] [µM] | IC50 [2] [µM] | IC50 [3] [µM] | IC50 [4] [µM] | also measured |
| --- | --- | --- | --- | --- | --- |
| COc1cc2c(cc1OC)C(=O)C(CC1CCN(Cc3ccc(F)cc3)CC1)C2 (stereo not drawn) | 0.041 | 2.31 | 8.13 | 0.13 | – |
| COc1cc2c(cc1OC)C(=O)C(CC1CCN(Cc3ccccn3)CC1)C2 (stereo not drawn) | 0.147 | 7.83 | 38.6 | 1.09 | – |
| COc1ccc2[nH]cc(CCNC(C)=O)c2c1 | – | – | – | – | Activity [5]: Active |
| COc1cc2c(cc1OC)C(=O)C(CC1CCN(Cc3ccccc3Cl)CC1)C2 (stereo not drawn) | 0.097 | 3.2 | 18.8 | 0.06 | – |
| COc1cc2c(cc1OC)C(=O)C(CC1CCN(Cc3ccccc3F)CC1)C2 (stereo not drawn) | 0.032 | 3.71 | 12.8 | 0.043 | Activity [6]: Dose-dependent effect; Activity [7]: Non-Toxic; Activity [8]: Non-Toxic; Activity [9]: Non-Toxic; Activity [10]: Non-Toxic; Activity [11]: Non-Toxic; Activity [12]: Non-Toxic; Activity [13]: Non-Toxic; inhibition (INH) [14]: < 10%; Activity [15]: Non-Toxic; inhibition [16]: Active; Papp at 18 h [17]: 13.7 ×10⁻⁶ cm/s; inhibition [18]: > 10% |
| COc1cc2c(cc1OC)C(=O)C(CC1CCN(Cc3cccc(C(F)(F)F)c3)CC1)C2 (stereo not drawn) | 2.12 | 18.2 | 76.9 | 0.197 | – |
| COc1cc2c(cc1OC)C(=O)C(CC1CCN(Cc3ncc(C)cc3C)CC1)C2 (stereo not drawn) | 0.814 | 6.31 | 8.55 | 1.01 | – |
| COc1cc2c(cc1OC)C(=O)C(CC1CCN(Cc3ccccc3C)CC1)C2 (stereo not drawn) | 0.243 | 38.1 | – | 0.184 | – |
| COc1cc2c(cc1OC)C(=O)C(CC1CCN(Cc3ccccc3)CC1)C2 (stereo not drawn) | – | – | – | – | inhibition [18]: > 10% |
| COc1cc2c(cc1OC)C(=O)C(CC1CCN(Cc3ccc4ccccc4n3)CC1)C2 (stereo not drawn) | 8.43 | 9.68 | 6.35 | 8.71 | – |
| COc1cc2c(cc1OC)C(=O)C(CC1CCN(Cc3ncccc3C)CC1)C2 (stereo not drawn) | 0.113 | 15.6 | 49.2 | 0.108 | Activity [10]: Non-Toxic; Papp at 18 h [17]: 8.4 ×10⁻⁶ cm/s; inhibition [18]: 29.3% |
| COc1cc2c(cc1OC)C(=O)C(CC1CCN(Cc3ccccc3C(F)(F)F)CC1)C2 (stereo not drawn) | 4.87 | 31.7 | 41.4 | 0.7 | – |
| COc1cc2c(cc1OC)C(=O)C(CC1CCN(Cc3ccc(O)c4ncccc34)CC1)C2 (stereo not drawn) | 20.9 | 7.65 | – | 27.3 | Activity [19]: Active; Activity [20]: Active; Activity [10]: Non-Toxic; Activity [21]: Active; Activity [22]: Active; Papp at 18 h [17]: 8.8 ×10⁻⁶ cm/s; inhibition [18]: 51.1% |
| COc1cc2c(cc1OC)C(=O)C(CC1CCN(Cc3ccc(Cl)cc3)CC1)C2 (stereo not drawn) | 2.86 | 89.4 | 81.6 | 4.8 | – |
| COc1cc2c(cc1OC)C(=O)C(CC1CCN(Cc3ccc(C)cc3)CC1)C2 (stereo not drawn) | 0.127 | 6.67 | 43.8 | 0.221 | Activity [10]: Non-Toxic |
| COc1cc2c(cc1OC)C(=O)C(CC1CCN(Cc3cccc(C)c3)CC1)C2 (stereo not drawn) | 0.088 | 5.83 | 28.1 | 0.108 | inhibition (INH) [14]: < 10%; Papp at 18 h [17]: 12.6 ×10⁻⁶ cm/s; inhibition [18]: > 10% |
| COc1cc2c(cc1OC)C(=O)C(CC1CCN(Cc3cccc(F)c3)CC1)C2 (stereo not drawn) | 0.054 | 2.66 | 26.7 | 0.068 | Papp at 18 h [17]: 11.5 ×10⁻⁶ cm/s; inhibition [18]: > 10% |
| COc1cc2c(cc1OC)C(=O)C(CC1CCN(Cc3cccc(Br)n3)CC1)C2 (stereo not drawn) | 1.98 | 17.5 | – | 0.253 | – |
| COc1cc2c(cc1OC)C(=O)C(CC1CCN(Cc3cccc(Cl)n3)CC1)C2 (stereo not drawn) | 0.883 | 31.6 | 78.7 | 0.409 | – |
| COc1cc2c(cc1OC)C(=O)C(CC1CCN(Cc3ccc4cccc(O)c4n3)CC1)C2 (stereo not drawn) | 29.8 | 4.53 | 37.4 | 6.42 | Papp at 18 h [17]: 6.1 ×10⁻⁶ cm/s; inhibition [18]: 44.8% |
| COc1cc2c(cc1OC)C(=O)C(CC1CCN(Cc3ccc(C(F)(F)F)cc3)CC1)C2 (stereo not drawn) | 5.43 | 3.98 | – | 2.03 | – |
| COC(=O)c1cccc(CN2CCC(CC3Cc4cc(OC)c(OC)cc4C3=O)CC2)n1 (stereo not drawn) | 5.78 | 29.5 | 25.4 | 0.511 | – |
| COc1cc2c(cc1OC)C(=O)C(CC1CCN(Cc3cccc(Cl)c3)CC1)C2 (stereo not drawn) | 0.114 | 68.9 | 50.2 | 0.237 | – |
| COc1cc2c(cc1OC)C(=O)C(CC1CCN(Cc3cccc(F)n3)CC1)C2 (stereo not drawn) | 0.195 | 21.1 | 38.9 | 0.246 | – |
| COc1cc2c(cc1OC)C(=O)C(CC1CCN(Cc3cccc([N+](=O)[O-])c3)CC1)C2 (stereo not drawn) | 0.652 | 42.4 | – | 0.414 | – |
| COc1cc2c(cc1OC)C(=O)C(CC1CCN(Cc3ccc([N+](=O)[O-])cc3)CC1)C2 (stereo not drawn) | 1.91 | 12.2 | 85.8 | 4.02 | – |
| COc1cc2c(cc1OC)C(=O)C(CC1CCN(Cc3ccccc3[N+](=O)[O-])CC1)C2 (stereo not drawn) | 3.11 | 31.1 | 91.2 | 0.106 | – |
